Earlier results as cited in patent EP1323421A1 (priority 2001, dated 2003).
Like-named read-outs stand apart in the source and are kept apart here.

Experiments:
plasma proteins = details: mainly to alpha and beta globulins
[1] = in vivo
[2] = not given; remark: listed apart in the source
[3] = not given; remark: listed apart in the source
[4] = intravenous single dose of about 0.3 mg

CO[C@]12CC[C@@]3(C[C@@H]1[C@](C)(O)C(C)(C)C)[C@H]1Cc4ccc(O)c5c4[C@@]3(CCN1CC1CC1)[C@H]2O5 [buprenorphine, 21-cyclopropyl-7.varies.-[(S)-1-hydroxy-1,2,2-trimethylpropyl]-6,14-endo-e thano-6,7,8,14-tetrahydrooripavine]
influence on the function of bladder or urethra (epidural application, 4 µg/kg (Batra) or 2 µg/kg (Drenger [with dogs])): does not have a significant influence | cases showing urinary retention (i.v. application of 0.3 mg, patients of approx. 70 kg (4.3 µg/kg), Malinovsky): 5 out of 10 | urinary retention (sublingual application of 400µg (~ 5.7 µg/kg), case shown by Murray): urinary retention was seen | bound to plasma proteins (plasma proteins): approximately 96% | analgesic potency relative to meperidine [1]: about 600 times | analgesic potency relative to pentazocine [1]: about 200 times | mean duration of analgesia [1]: six | time to highest concentrations in the liver ([2]; intramuscular administration in rats): ≤ 40 min | time to highest concentrations in the liver ([2]; oral administration in rats): ≤ 10 min | Tmax ([3]; 0.4 mg sublingual dose): 210.+-.40 minutes | systemic availability ([3]; 0.4 mg sublingual dose): 57.7% | Tmax ([3]; 0.8 mg sublingual dose): 192.+-.49 minutes | systemic availability ([3]; 0.8 mg sublingual dose): 54.1% | Total plasma clearance ([3]; conscious postoperative patients): approximately 1.28 I/minute | hepatic extraction ratio ([3]; in vivo): approximately 1 | Oral bioavailability ([3]; in vivo, po): ~15% | mean peak plasma buprenorphine concentrations ([3]; intramuscular second 0.3-mg dose 3 hours after the initial intravenous dose): about 3.6 ng/ml | plasma concentrations ([3]; intramuscular second 0.3-mg dose, after about 3 hours): about 0.4 ng/ml | plasma concentrations ([3]; intravenous about 0.3 mg, after about 5 minutes): about 9 ng/ml | plasma concentrations ([3]; intravenous about 0.3 mg, after about 3 hours): about 0.4 ng/ml | mean peak plasma drug concentrations [3, 4]: about 18 ng/ml | time of mean peak plasma drug concentrations [3, 4]: ≤ 2 min
